Source: PubChem BioAssay AID2060910 (Molecular Pharmacology Branch, DTP, NCI, 2025)

Tested on: 242566-281-R-J2-PDC complex spheroid viability
Assay: Anticancer human tumor 242566-281-R-J2-PDC patient-derived pancreatic carcinoma cell line growth inhibition [RAS]
Conditions: for IC50: curve of first compound; for viability, T/C: stronger effect = lower value
Outline: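 Multi-cell-type spheroids: tumor cells plus HUVEC endothelial cells and mesenchymal stem cells. RAS-pathway inhibitors were combined with targeted agents, each dosed in half-log steps down from clinical Cmax, or from 10 microM when Cmax was unknown.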

[1] = second compound 0.000949 µM, first compound 0.0316 µM
[2] = second compound 0.000949 µM, first compound 0.1 µM
[3] = second compound 0.000949 µM, first compound 0.316 µM
[4] = second compound 0.000949 µM, first compound 1 µM
[5] = second compound 0.000949 µM, first compound 3.16 µM
[6] = second compound 0.000949 µM, first compound 10 µM
[7] = second compound 0.003 µM, first compound 0.0316 µM
[8] = second compound 0.003 µM, first compound 0.1 µM
[9] = second compound 0.003 µM, first compound 0.316 µM
[10] = second compound 0.003 µM, first compound 1 µM
[11] = second compound 0.003 µM, first compound 3.16 µM
[12] = second compound 0.003 µM, first compound 10 µM
[13] = second compound 0.00949 µM, first compound 0.0316 µM
[14] = second compound 0.00949 µM, first compound 0.1 µM
[15] = second compound 0.00949 µM, first compound 0.316 µM
[16] = second compound 0.00949 µM, first compound 1 µM
[17] = second compound 0.00949 µM, first compound 3.16 µM
[18] = second compound 0.00949 µM, first compound 10 µM
[19] = second compound 0.03 µM, first compound 0.0316 µM
[20] = second compound 0.03 µM, first compound 0.1 µM
[21] = second compound 0.03 µM, first compound 0.316 µM
[22] = second compound 0.03 µM, first compound 1 µM
[23] = second compound 0.03 µM, first compound 3.16 µM
[24] = second compound 0.03 µM, first compound 10 µM
[25] = second compound 0.0949 µM, first compound 0.0316 µM
[26] = second compound 0.0949 µM, first compound 0.1 µM
[27] = second compound 0.0949 µM, first compound 0.316 µM
[28] = second compound 0.0949 µM, first compound 1 µM
[29] = second compound 0.0949 µM, first compound 3.16 µM
[30] = second compound 0.0949 µM, first compound 10 µM
[31] = second compound 0.3 µM, first compound 0.0316 µM
[32] = second compound 0.3 µM, first compound 0.1 µM
[33] = second compound 0.3 µM, first compound 0.316 µM
[34] = second compound 0.3 µM, first compound 1 µM
[35] = second compound 0.3 µM, first compound 3.16 µM
[36] = second compound 0.3 µM, first compound 10 µM
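Also: spheroids exposed to compound for 7 days before readout.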
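For viability, T/C in this document: 100% = DMSO vehicle control wells.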

CC(C)NCC(C(=O)N1CCN(c2ncnc3c2C(C)CC3O)CC1)c1ccc(Cl)cc1 (stereo not drawn) + CCn1c(-c2cc(N3CCN(C)CC3)cnc2C(C)OC)c2c3cc(ccc31)-c1csc(n1)CC(NC(=O)C1CC1C)C(=O)N1CCCC(N1)C(=O)OCC(C)(C)C2
IC50 (second compound 0.000949 µM): 7980 nM
IC50 (second compound 0.003 µM): 3660 nM
IC50 (second compound 0.00949 µM): < 31.6 nM
IC50 (second compound 0.03 µM): < 31.6 nM
IC50 (second compound 0.0949 µM): < 31.6 nM
IC50 (second compound 0.3 µM): < 31.6 nM
viability, T/C [1]: 92.1%
viability, T/C [2]: 92.8%
viability, T/C [3]: 74.8%
viability, T/C [4]: 95.2%
viability, T/C [5]: 75.2%
viability, T/C [6]: 43.9%
viability, T/C [7]: 78%
viability, T/C [8]: 70.3%
viability, T/C [9]: 57.6%
viability, T/C [10]: 64.8%
viability, T/C [11]: 56.9%
viability, T/C [12]: 28.4%
viability, T/C [13]: 49.6%
viability, T/C [14]: 42.6%
viability, T/C [15]: 48.6%
viability, T/C [16]: 41.5%
viability, T/C [17]: 26%
viability, T/C [18]: 17.9%
viability, T/C [19]: 30.9%
viability, T/C [20]: 31.8%
viability, T/C [21]: 28.5%
viability, T/C [22]: 27.1%
viability, T/C [23]: 12%
viability, T/C [24]: 9.97%
viability, T/C [25]: 23.8%
viability, T/C [26]: 22.7%
viability, T/C [27]: 22.1%
viability, T/C [28]: 20.8%
viability, T/C [29]: 7.71%
viability, T/C [30]: 5.5%
viability, T/C [31]: 19.9%
viability, T/C [32]: 18%
viability, T/C [33]: 16.7%
viability, T/C [34]: 13.1%
viability, T/C [35]: 6.93%
viability, T/C [36]: 3.76%

CC(C)n1nc(-c2ccc3oc(N)nc3c2)c2c(N)ncnc21 + CCn1c(-c2cc(N3CCN(C)CC3)cnc2C(C)OC)c2c3cc(ccc31)-c1csc(n1)CC(NC(=O)C1CC1C)C(=O)N1CCCC(N1)C(=O)OCC(C)(C)C2
IC50 (second compound 0.000949 µM): 29.9 nM
IC50 (second compound 0.003 µM): 7.15 nM
IC50 (second compound 0.00949 µM): < 0.316 nM
IC50 (second compound 0.03 µM): < 0.316 nM
IC50 (second compound 0.0949 µM): < 0.316 nM
IC50 (second compound 0.3 µM): < 0.316 nM
viability, T/C (second compound 0.000949 µM, first compound 0.000316 µM): 81.6%
viability, T/C (second compound 0.000949 µM, first compound 0.001 µM): 91.5%
viability, T/C (second compound 0.000949 µM, first compound 0.00316 µM): 61.7%
viability, T/C (second compound 0.000949 µM, first compound 0.01 µM): 71.3%
viability, T/C [1]: 48%
viability, T/C [2]: 27.4%
viability, T/C (second compound 0.003 µM, first compound 0.000316 µM): 75.8%
viability, T/C (second compound 0.003 µM, first compound 0.001 µM): 62.1%
viability, T/C (second compound 0.003 µM, first compound 0.00316 µM): 54.2%
viability, T/C (second compound 0.003 µM, first compound 0.01 µM): 48.7%
viability, T/C [7]: 40.9%
viability, T/C [8]: 20.6%
viability, T/C (second compound 0.00949 µM, first compound 0.000316 µM): 48.5%
viability, T/C (second compound 0.00949 µM, first compound 0.001 µM): 38.4%
viability, T/C (second compound 0.00949 µM, first compound 0.00316 µM): 36.1%
viability, T/C (second compound 0.00949 µM, first compound 0.01 µM): 30.9%
viability, T/C [13]: 28.2%
viability, T/C [14]: 15.8%
viability, T/C (second compound 0.03 µM, first compound 0.000316 µM): 28.5%
viability, T/C (second compound 0.03 µM, first compound 0.001 µM): 29.8%
viability, T/C (second compound 0.03 µM, first compound 0.00316 µM): 26.3%
viability, T/C (second compound 0.03 µM, first compound 0.01 µM): 19.1%
viability, T/C [19]: 11.9%
viability, T/C [20]: 10.4%
viability, T/C (second compound 0.0949 µM, first compound 0.000316 µM): 21.5%
viability, T/C (second compound 0.0949 µM, first compound 0.001 µM): 18.4%
viability, T/C (second compound 0.0949 µM, first compound 0.00316 µM): 18.9%
viability, T/C (second compound 0.0949 µM, first compound 0.01 µM): 13.8%
viability, T/C [25]: 7.41%
viability, T/C [26]: 6.96%
viability, T/C (second compound 0.3 µM, first compound 0.000316 µM): 18.5%
viability, T/C (second compound 0.3 µM, first compound 0.001 µM): 16.6%
viability, T/C (second compound 0.3 µM, first compound 0.00316 µM): 15.2%
viability, T/C (second compound 0.3 µM, first compound 0.01 µM): 11.5%
viability, T/C [31]: 7.41%
viability, T/C [32]: 5.69%

CC(Nc1ccc2c(c1)OCCn1cc(N3C(=O)OCC3C(F)F)nc1-2)C(N)=O (stereo not drawn) + CCn1c(-c2cc(N3CCN(C)CC3)cnc2C(C)OC)c2c3cc(ccc31)-c1csc(n1)CC(NC(=O)C1CC1C)C(=O)N1CCCC(N1)C(=O)OCC(C)(C)C2
IC50 (second compound 0.000949 µM): 364 nM
IC50 (second compound 0.003 µM): 95.1 nM
IC50 (second compound 0.00949 µM): < 31.6 nM
IC50 (second compound 0.03 µM): < 31.6 nM
IC50 (second compound 0.0949 µM): < 31.6 nM
IC50 (second compound 0.3 µM): < 31.6 nM
viability, T/C [1]: 85.8%
viability, T/C [2]: 85.2%
viability, T/C [3]: 39.8%
viability, T/C [4]: 39.1%
viability, T/C [5]: 26.5%
viability, T/C [6]: 11.5%
viability, T/C [7]: 70.6%
viability, T/C [8]: 47.3%
viability, T/C [9]: 32.9%
viability, T/C [10]: 22.4%
viability, T/C [11]: 14.5%
viability, T/C [12]: 5.29%
viability, T/C [13]: 40.7%
viability, T/C [14]: 25.1%
viability, T/C [15]: 18.2%
viability, T/C [16]: 11.3%
viability, T/C [17]: 4.65%
viability, T/C [18]: 3.19%
viability, T/C [19]: 26.4%
viability, T/C [20]: 17.9%
viability, T/C [21]: 10.6%
viability, T/C [22]: 5.37%
viability, T/C [23]: 1.87%
viability, T/C [24]: 1.22%
viability, T/C [25]: 16.7%
viability, T/C [26]: 11.5%
viability, T/C [27]: 7.81%
viability, T/C [28]: 3.68%
viability, T/C [29]: 1.35%
viability, T/C [30]: 0.91%
viability, T/C [31]: 16.5%
viability, T/C [32]: 11.3%
viability, T/C [33]: 5.47%
viability, T/C [34]: 3.22%
viability, T/C [35]: 1.55%
viability, T/C [36]: 1.07%

C[C@@H](NC(=O)c1ncnc(N)c1Cl)c1ncc(C(=O)Nc2cc(C(F)(F)F)c(Cl)cn2)s1 + CCn1c(-c2cc(N3CCN(C)CC3)cnc2C(C)OC)c2c3cc(ccc31)-c1csc(n1)CC(NC(=O)C1CC1C)C(=O)N1CCCC(N1)C(=O)OCC(C)(C)C2
IC50 (second compound 0.000949 µM): > 10000 nM
IC50 (second compound 0.003 µM): > 10000 nM
IC50 (second compound 0.00949 µM): > 10000 nM
IC50 (second compound 0.03 µM): < 31.6 nM
IC50 (second compound 0.0949 µM): < 31.6 nM
IC50 (second compound 0.3 µM): < 31.6 nM
viability, T/C [1]: 98.8%
viability, T/C [2]: 114%
viability, T/C [3]: 82.7%
viability, T/C [4]: 97.9%
viability, T/C [5]: 106%
viability, T/C [6]: 76.4%
viability, T/C [7]: 89.8%
viability, T/C [8]: 73.5%
viability, T/C [9]: 71.6%
viability, T/C [10]: 79.2%
viability, T/C [11]: 92.7%
viability, T/C [12]: 62.3%
viability, T/C [13]: 54%
viability, T/C [14]: 49.3%
viability, T/C [15]: 54.7%
viability, T/C [16]: 63.3%
viability, T/C [17]: 58.9%
viability, T/C [18]: 52.7%
viability, T/C [19]: 35.3%
viability, T/C [20]: 35.2%
viability, T/C [21]: 39.9%
viability, T/C [22]: 35.4%
viability, T/C [23]: 29.8%
viability, T/C [24]: 40.1%
viability, T/C [25]: 22.9%
viability, T/C [26]: 24.8%
viability, T/C [27]: 25.7%
viability, T/C [28]: 27.2%
viability, T/C [29]: 23.6%
viability, T/C [30]: 26.3%
viability, T/C [31]: 21.2%
viability, T/C [32]: 23.5%
viability, T/C [33]: 22.2%
viability, T/C [34]: 19.9%
viability, T/C [35]: 21.9%
viability, T/C [36]: 22.6%
